Data as given in ChEMBL document CHEMBL5303766, “Data for DCP probe FHT-2344” (2022).
The source made the active and inactive calls. The rule behind the calls is not given here.

Key:
[1] = molecular target: T1, Bone morphogenetic protein receptor type-2 (Homo sapiens) (UniProt Q13873); assay: BMPR2 SGC Tm panel (DSF); conditions: for ΔTm: Compound concentration 10.0 uM
T1 sequence (whole entry): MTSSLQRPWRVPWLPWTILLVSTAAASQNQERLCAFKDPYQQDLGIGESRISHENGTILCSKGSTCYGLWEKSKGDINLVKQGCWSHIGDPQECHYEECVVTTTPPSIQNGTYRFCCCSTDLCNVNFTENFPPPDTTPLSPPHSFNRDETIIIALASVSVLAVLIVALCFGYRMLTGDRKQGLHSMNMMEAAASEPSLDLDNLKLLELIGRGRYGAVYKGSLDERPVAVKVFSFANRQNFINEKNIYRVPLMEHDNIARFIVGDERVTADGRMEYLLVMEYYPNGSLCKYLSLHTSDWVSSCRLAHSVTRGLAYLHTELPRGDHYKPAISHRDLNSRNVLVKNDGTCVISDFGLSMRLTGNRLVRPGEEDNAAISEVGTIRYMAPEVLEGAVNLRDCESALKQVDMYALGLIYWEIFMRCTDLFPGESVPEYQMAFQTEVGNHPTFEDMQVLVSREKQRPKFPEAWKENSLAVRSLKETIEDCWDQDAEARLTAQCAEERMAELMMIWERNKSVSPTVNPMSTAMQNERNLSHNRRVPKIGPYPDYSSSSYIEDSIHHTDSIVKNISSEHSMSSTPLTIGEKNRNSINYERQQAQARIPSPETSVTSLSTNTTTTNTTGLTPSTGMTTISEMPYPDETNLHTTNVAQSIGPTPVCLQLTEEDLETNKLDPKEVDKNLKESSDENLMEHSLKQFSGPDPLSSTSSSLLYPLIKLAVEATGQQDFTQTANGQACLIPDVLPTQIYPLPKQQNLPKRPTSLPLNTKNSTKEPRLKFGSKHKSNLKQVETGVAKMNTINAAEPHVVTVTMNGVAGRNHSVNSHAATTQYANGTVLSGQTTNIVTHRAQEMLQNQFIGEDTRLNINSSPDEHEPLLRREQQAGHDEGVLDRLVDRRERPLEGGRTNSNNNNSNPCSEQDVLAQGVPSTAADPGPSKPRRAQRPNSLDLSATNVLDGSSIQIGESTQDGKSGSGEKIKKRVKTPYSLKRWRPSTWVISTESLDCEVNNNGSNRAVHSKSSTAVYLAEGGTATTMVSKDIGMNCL

[2] = molecular target: Ephrin type-A receptor 7 (Homo sapiens) (UniProt Q15375); assay: EPHA7 SGC Tm panel (DSF); conditions: for ΔTm: Compound concentration 10.0 uM
[3] = molecular target: T2, Cytoplasmic tyrosine-protein kinase BMX (Homo sapiens) (UniProt P51813); assay: BMX SGC Tm panel (DSF); conditions: for ΔTm: Compound concentration 10.0 uM
T2 sequence (whole entry): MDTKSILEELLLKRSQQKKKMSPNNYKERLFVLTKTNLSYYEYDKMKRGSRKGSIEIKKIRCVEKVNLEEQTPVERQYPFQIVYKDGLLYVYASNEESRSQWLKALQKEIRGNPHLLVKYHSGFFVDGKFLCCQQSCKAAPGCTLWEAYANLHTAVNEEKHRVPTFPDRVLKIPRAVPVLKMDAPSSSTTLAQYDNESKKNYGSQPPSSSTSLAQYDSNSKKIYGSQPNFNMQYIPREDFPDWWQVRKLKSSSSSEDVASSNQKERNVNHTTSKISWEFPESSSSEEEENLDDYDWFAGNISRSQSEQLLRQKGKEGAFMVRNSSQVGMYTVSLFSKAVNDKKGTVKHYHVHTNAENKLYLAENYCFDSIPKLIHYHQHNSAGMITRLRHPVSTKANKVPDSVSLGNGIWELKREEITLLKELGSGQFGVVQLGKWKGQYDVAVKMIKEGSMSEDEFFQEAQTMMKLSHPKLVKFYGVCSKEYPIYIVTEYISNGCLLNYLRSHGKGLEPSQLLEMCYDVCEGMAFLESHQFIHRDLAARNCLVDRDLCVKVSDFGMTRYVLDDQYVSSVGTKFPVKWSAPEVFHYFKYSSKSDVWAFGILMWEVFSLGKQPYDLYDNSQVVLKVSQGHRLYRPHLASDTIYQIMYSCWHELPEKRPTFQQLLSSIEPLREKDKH

[4] = molecular target: T3, Ferrochelatase, mitochondrial (Homo sapiens) (UniProt P22830); assay: FECH SGC Tm panel (DSF); conditions: for ΔTm: Compound concentration 10.0 uM
T3 sequence (whole entry): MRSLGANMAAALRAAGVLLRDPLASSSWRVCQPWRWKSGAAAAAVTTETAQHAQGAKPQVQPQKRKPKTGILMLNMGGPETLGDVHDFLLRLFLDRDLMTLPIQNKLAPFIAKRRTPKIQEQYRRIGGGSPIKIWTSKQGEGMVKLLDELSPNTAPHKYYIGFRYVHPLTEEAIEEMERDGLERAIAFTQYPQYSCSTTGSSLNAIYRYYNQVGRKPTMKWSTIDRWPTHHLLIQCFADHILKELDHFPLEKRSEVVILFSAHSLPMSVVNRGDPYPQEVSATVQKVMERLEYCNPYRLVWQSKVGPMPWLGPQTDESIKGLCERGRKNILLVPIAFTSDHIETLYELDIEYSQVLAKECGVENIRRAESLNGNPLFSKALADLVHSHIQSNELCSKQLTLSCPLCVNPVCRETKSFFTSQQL

[5] = molecular target: SWI/SNF-related matrix-associated actin-dependent regulator of chromatin subfamily A member 2 (Homo sapiens, UniProt P51531); assay: Measurement of the ATPase catalytic activity using the ADP-Glo detection (SMARCA2); format: functional
[6] = molecular target: Death-associated protein kinase 3 (Homo sapiens) (UniProt O43293); assay: DAPK3 SGC Tm panel (DSF); conditions: for ΔTm: Compound concentration 10.0 uM
[7] = molecular target: Ribosomal protein S6 kinase alpha-1 (Homo sapiens) (UniProt Q15418); assay: RPS6KA1 SGC Tm panel (DSF); conditions: for ΔTm: Compound concentration 10.0 uM
Ribosomal protein S6 kinase alpha-1 (Homo sapiens), sequence (Q15418 whole entry): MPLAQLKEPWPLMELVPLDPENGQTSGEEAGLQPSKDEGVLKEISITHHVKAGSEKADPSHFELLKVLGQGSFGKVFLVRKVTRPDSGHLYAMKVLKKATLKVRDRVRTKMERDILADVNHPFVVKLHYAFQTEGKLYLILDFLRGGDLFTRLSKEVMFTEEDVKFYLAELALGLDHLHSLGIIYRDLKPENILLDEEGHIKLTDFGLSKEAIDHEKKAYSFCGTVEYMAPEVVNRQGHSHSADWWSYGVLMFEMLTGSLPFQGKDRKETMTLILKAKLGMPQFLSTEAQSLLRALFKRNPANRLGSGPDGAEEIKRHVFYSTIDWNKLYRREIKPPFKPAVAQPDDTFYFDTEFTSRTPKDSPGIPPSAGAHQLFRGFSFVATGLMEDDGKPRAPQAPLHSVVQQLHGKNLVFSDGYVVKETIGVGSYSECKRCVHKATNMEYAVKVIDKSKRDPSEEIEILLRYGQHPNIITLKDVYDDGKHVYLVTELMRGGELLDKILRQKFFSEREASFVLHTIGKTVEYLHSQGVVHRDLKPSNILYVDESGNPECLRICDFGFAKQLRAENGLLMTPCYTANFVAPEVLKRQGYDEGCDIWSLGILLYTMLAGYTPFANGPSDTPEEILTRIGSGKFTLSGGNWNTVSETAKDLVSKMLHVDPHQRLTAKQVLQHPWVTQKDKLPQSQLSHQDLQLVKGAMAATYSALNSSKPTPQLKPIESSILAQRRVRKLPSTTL

Death-associated protein kinase 3 (Homo sapiens), sequence (O43293 whole entry, looked up): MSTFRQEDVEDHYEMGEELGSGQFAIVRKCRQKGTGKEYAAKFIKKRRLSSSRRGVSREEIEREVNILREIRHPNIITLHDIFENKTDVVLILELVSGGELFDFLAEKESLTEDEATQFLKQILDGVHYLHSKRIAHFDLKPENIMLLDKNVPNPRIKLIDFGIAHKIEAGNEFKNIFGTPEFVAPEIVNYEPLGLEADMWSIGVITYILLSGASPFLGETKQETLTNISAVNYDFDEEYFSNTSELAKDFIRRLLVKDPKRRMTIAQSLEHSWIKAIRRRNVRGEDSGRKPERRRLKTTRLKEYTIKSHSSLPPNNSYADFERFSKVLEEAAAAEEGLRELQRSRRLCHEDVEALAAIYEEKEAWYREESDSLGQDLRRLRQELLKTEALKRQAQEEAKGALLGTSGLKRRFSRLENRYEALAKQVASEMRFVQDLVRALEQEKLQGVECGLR
Ephrin type-A receptor 7 (Homo sapiens), sequence (Q15375 28-998 limits assumed): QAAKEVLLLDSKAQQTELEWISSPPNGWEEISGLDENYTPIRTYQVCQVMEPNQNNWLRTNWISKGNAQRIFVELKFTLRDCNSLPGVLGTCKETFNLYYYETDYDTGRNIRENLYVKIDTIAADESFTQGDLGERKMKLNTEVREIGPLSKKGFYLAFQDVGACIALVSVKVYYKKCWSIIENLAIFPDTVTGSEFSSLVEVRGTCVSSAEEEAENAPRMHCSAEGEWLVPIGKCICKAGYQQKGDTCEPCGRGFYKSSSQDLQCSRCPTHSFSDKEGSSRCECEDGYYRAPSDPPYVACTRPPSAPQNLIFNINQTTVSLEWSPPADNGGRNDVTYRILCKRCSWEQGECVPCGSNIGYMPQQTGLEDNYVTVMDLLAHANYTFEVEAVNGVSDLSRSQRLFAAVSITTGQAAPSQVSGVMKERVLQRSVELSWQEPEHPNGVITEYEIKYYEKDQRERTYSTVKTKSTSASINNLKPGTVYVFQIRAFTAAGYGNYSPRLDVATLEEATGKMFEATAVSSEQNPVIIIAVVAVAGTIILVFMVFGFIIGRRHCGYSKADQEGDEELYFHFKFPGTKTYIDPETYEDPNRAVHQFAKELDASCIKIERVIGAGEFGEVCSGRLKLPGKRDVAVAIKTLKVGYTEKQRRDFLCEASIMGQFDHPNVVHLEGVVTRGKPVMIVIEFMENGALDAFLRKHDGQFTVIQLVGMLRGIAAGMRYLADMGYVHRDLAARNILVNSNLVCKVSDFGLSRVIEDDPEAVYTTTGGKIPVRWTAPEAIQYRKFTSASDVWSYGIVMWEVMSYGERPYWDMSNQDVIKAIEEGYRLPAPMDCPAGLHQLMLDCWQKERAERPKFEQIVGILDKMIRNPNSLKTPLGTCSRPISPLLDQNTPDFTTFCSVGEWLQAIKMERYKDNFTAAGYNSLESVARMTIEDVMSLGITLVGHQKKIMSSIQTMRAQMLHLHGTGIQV
SWI/SNF-related matrix-associated actin-dependent regulator of chromatin subfamily A member 2, sequence (P51531 whole entry): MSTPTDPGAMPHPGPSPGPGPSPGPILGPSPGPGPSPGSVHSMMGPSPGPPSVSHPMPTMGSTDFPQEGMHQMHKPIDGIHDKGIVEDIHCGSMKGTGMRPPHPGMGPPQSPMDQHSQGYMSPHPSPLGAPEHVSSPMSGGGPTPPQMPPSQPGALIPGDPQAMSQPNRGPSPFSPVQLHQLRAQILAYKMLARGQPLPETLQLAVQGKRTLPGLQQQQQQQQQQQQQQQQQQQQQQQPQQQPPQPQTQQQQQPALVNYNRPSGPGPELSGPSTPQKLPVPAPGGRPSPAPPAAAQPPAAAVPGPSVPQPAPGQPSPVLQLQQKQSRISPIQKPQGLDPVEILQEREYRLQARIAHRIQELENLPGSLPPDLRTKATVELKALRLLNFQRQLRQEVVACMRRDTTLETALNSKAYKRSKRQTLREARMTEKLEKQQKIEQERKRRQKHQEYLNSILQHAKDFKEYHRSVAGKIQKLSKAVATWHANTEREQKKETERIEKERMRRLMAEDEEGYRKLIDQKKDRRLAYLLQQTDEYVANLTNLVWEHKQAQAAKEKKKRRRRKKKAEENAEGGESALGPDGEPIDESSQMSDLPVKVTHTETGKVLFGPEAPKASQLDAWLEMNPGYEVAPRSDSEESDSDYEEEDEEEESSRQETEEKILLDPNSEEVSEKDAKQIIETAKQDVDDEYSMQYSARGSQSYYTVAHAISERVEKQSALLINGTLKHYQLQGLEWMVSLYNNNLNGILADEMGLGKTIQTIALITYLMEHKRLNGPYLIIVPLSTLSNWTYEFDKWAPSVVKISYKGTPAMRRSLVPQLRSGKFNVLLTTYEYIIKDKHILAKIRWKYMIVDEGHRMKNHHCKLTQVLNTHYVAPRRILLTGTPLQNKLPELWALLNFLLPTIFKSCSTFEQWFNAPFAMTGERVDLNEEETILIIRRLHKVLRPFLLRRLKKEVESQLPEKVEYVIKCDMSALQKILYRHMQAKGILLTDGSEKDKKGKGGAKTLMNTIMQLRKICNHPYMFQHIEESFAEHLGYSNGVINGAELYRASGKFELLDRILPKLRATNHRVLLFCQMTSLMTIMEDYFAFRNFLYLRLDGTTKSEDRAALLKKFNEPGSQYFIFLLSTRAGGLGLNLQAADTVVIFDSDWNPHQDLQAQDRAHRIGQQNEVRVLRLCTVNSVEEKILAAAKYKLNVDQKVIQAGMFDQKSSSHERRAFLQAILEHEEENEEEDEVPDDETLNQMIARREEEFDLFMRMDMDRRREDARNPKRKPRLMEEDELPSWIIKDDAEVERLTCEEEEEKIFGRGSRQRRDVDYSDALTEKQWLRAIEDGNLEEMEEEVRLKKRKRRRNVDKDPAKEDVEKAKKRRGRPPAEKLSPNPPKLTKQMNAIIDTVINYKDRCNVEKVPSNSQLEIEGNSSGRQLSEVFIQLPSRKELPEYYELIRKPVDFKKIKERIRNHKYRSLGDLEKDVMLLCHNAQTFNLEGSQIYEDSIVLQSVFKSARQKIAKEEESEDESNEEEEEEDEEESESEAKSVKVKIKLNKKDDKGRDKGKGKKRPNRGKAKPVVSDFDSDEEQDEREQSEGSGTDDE

| delta Tm Staurosporine positive control [1] | ΔTm [1] | delta Tm Staurosporine positive control [2] | ΔTm [2] | delta Tm Staurosporine positive control [3] | ΔTm [3] | delta Tm Staurosporine positive control [4] | ΔTm [4] | IC50 [5] | delta Tm Staurosporine positive control [7] | ΔTm [7] | SMILES | delta Tm Staurosporine positive control [6] | ΔTm [6] |
| --- | --- | --- | --- | --- | --- | --- | --- | --- | --- | --- | --- | --- | --- |
| 2.89 | 0.38 | 11.5 | 1.13 | 7.18 | 0.254 | 1.69 | -0.558 | 1880 nM (not active) | 3.76 | 0.223 | C[C@H](NC(=O)c1cn(C2(C#N)CC2)cn1)C(=O)Nc1nc(-c2cccc(-c3ccn(C)n3)c2)cs1 | 16.2 | -1.05 |
| 2.89 | 0.371 | 11.5 | 0.976 | 7.18 | 0.191 | 1.69 | 0.0581 | 13.8 nM (active) | 3.76 | 0.166 | COC[C@H](NC(=O)c1ccn(S(C)(=O)=O)c1)C(=O)Nc1nc(-c2cccc(-c3ccn(C)n3)c2)cs1 | 16.2 | -1.53 |
